Experimental findings from patent publication US20040132795A1, “Methods to screen and treat individuals with glaucoma or the propensity to develop glaucoma” (priority 2001, published 2004) are described below.

Holding throughout (format): in vivo, human
Assay [1] in a line: Treatment with diclofenac for 6 months in the presence of the TIGR mt-1 mutation, mean diurnal IOP. The text has this: After treatment for 6 months with varying amounts of diclofenac in the presence of the mt-1 mutation, the following results are observed: […]
Assay [2] can be described thus: Treatment with diclofenac in glaucomic patients having the TIGRmt-11 mutation, mean diurnal IOP. Conditions: 0.1% diclofenac. The text has this:
The same procedures described in Example II were followed with respect to administering Diclofenac to glaucomic patients having the […]-11 mutation.

A short description of assay [3]: Treatment with diclofenac in glaucomic patients possessing both the mt-1 and mt-11 mutations, mean diurnal IOP. As to conditions: 0.1% diclofenac.
The mark [4] stands for this setting: 0.03% diclofenac, mt-1 mutation present.
The mark [5] stands for this setting: 0.06% diclofenac, mt-1 mutation present.
The mark [6] stands for this setting: 0.1% diclofenac, mt-1 mutation present.

As to `O=C(O)Cc1ccccc1Nc1c(Cl)cccc1Cl` [Diclofenac], the figures for the “Percentage of Patients Exhibiting a Decrease in Diurnal IOP >= 2 mm Hg After 6 Months of Treatment” value in assay [1] (setting [4]), in assay [1] (setting [5]) and in assay [1] (setting [6]) were 36%, 40% and 64%, respectively. In addition, the “Percentage of subjects exhibiting a Mean Diurnel IOP < 22 mm Hg After 6 Months of Treatment” value in assay [1] (setting [4]) is given as 55%; in assay [1] (setting [5]), 60%; in assay [1] (setting [6]), 64%. The “Mean Change in Diurnal IOP at 6 Months” value was −1.5 mm Hg in assay [1] (0.1% diclofenac, mt-1 mutation absent); −2.1 mm Hg in assay [1] (setting [6]); −1.3 mm Hg in assay [2] (mt-11 mutation absent); −2.0 mm Hg in assay [2] (mt-11 mutation present); −0.6 mm Hg in assay [3] (mt-1 and mt-11 mutations absent); −2.9 mm Hg in assay [3] (mt-1 and mt-11 mutations present).
